Experimental data from patent US10781202B2, “Azetidinyloxyphenylpyrrolidine compounds” (Eli Lilly and Company, priority 2014, dated 2020).

Tested on: chronic cyclophosphamide (CYP)-induced overactive bladder mouse model
Assay: Overactive Bladder In Vivo Model
Conditions: tadalafil 10 mg/kg orally daily; CYP-induced OAB female C57/B16 mice; day 8, 4 hour urine collection
Experimental: Overactive Bladder In Vivo Model
The in vivo effect of PDE4 inhibitors on OAB is studied with a chronic cyclophosphamide (CYP)-induced overactive bladder mouse model adapted from Boudes et al., Neurourol. Urodynam. 2011. In a typical study, female C57/B16 mice, approximately 20 grams in body weight (Harlan Laboratories, Inc., Indianapolis, Ind.) are used. Mice are randomized by body weight into groups one day before the start of the study. Mice are individually housed and maintained on a 12 hour light/dark cycle at 22° C. with ad lib access to food (TD 2014 with 0.72% Ca and 0.61% P, 990 IU/g D3, Teklad™, Madison, Wis.) and water Animals receive cyclophosphamide (dissolved in physiological saline) i.p. administration at 100 mg/kg on days 1, 3, 5, and 7 to chronically induce OAB. The vehicle control group received daily vehicle (HEC 1%/Tween 80 0.25%/Antifoam 0.05%) administered orally. All other groups are administered orally tadalafil at 10 mg/kg in combination with 0.1, 1.0, or 10.0 mg/kg of test compound daily at a volume of 200 μl/mouse. On day 8, mice are housed in urine collection chambers with a filter paper placed underneath chamber. Prior to urine collection, gavages of 1 ml water are given to each mouse. […] Voiding frequency and volume/void are calculated using Image J software (NIH). Data are statistically analyzed with JMP8® software (Cary, N.C.). […]

| SMILES | urinary frequency | volume per void |
| --- | --- | --- |
| CN1CC(=O)N2[C@H](c3ccc4c(c3)OCO4)c3[nH]c4ccccc4c3C[C@@H]2C1=O [tadalafil] | no significant activity | no significant activity |

Target: PDE4B (Homo sapiens (Human), UniProt Q07343)
Assay: PDE4 Inhibition In Vitro Assay (PDE4B)
Type: biochemical
Conditions: human recombinant PDE4B; 15 minutes at 30° C.; 2.5% DMSO
Experimental: PDE4 Inhibition In Vitro Assay
The phosphodiesterase assays are performed essentially according to the method described in Loughney, K., et al., J. Biol. Chem., 271, pp. 796-806 (1996). PDE4A, PDE4B, PDE4C, PDE4D, and PDE5 human recombinant proteins are expressed and purified from Saccharomyes cerevisiae that lack endogenous PDEs. The phosphodiesterase enzymes are diluted on ice with enzyme dilution buffer (25 mM Tris, pH 7.5, 0.1 mM DTT, 5.0 mM MgCl2, 100 mM NaCl, 5 μM ZnSO4, 100 μg/mL BSA) to give approximately 20%-40% hydrolysis of cyclic nucleotide monophosphate (cNMP) in the absence of inhibitor.
The stock solution of test compounds are diluted on the Beckman BioMek™ 1000 workstation to span a concentration range of 4.5 log units in 0.5 log increments. The DMSO concentration in the final test system is 2.5% for all PDE enzymes. The final test compound concentration tested ranged from 0.03 nM to 1 μM.
The assay is performed in a 96-well microtiter plate format on a Beckman BioMek™ 1000 robotic station. Each row of the plate represents a 10-point dose response curve containing blank (no enzyme), non-inhibited control, and inhibitor dilutions spanning 4.5 log units in concentration in 0.5 log increments. Assay stock solutions are loaded into the Biomek™ reservoirs (water, inhibitor diluent [2.5% or 10% DMSO], 5× PDE assay buffer, substrate, inhibitor solutions, enzyme solutions, snake venom nucleotidase, and charcoal suspension). The reaction is initiated with enzyme, and incubated for 15 minutes at 30° C. An excess of Crotalus atrox snake venom nucleotidase (5 μL/well) is then added and the mixture is incubated for an additional 3 minutes. The reaction is terminated by the addition of 200 μL of activated charcoal suspension, after which the plate is centrifuged for 5 minutes at 750×g. A transfer program is run in which 200 μL of supernatant is removed and placed into a new plate. The amount of radioactivity released as phosphate is determined in a Wallac MicroBeta Plate™ counter.
The reduced data at each concentration of inhibitor is analyzed using a four-, three- or two-parameter logistic dose response model to provide an IC50 value.

Sequence of PDE4B (Q07343 whole entry): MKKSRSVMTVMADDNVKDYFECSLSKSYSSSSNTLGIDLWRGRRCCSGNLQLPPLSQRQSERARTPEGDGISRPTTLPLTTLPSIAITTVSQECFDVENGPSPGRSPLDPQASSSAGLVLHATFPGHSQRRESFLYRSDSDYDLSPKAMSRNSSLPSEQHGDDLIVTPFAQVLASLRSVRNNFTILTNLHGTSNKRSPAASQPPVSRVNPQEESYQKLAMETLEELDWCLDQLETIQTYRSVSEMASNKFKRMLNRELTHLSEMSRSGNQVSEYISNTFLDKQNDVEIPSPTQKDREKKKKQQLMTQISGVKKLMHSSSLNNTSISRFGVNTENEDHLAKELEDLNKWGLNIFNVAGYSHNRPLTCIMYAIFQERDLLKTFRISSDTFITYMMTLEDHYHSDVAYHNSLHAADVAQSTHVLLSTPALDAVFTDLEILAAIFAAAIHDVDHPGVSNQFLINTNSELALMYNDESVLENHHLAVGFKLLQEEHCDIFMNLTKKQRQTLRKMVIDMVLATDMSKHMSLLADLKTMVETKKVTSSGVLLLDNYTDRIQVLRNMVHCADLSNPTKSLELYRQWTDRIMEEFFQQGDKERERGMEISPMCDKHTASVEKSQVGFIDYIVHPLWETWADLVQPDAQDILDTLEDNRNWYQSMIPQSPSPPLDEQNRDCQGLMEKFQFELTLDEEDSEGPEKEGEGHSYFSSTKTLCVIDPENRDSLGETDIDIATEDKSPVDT

| SMILES | IC50 |
| --- | --- |
| COc1ccc([C@@H]2CN(C(=O)[C@@H](O)CO)C[C@@]2(C)[C@@H](C)O)cc1OC1CN(c2cccnc2)C1 [Example 2, (2S)-3-[(3S,4S)-3-[(1R)-1-hydroxyethyl]-4-{4-methoxy-3-[(1-pyridin-3-ylazetidin-3-yl)oxy]phenyl}-3-methylpyrrolidin-1-yl]-3-oxopropane-1,2-diol] | 1.8 nM |
| COc1ccc([C@@H]2CN(C(=O)[C@@H](O)CO)C[C@@]2(C)[C@@H](C)O)cc1OC1CN(c2ccncc2)C1 [Example 3, (2S)-3-[(3S,4S)-3-[(1R)-1-hydroxyethyl]-4-{4-methoxy-3-[(1-pyridin-4-ylazetidin-3-yl)oxy]phenyl}-3-methylpyrrolidin-1-yl]-3-oxopropane-1,2-diol] | 7.7 nM |
| COc1ccc([C@@H]2CN(C(=O)[C@@H](O)CO)C[C@@]2(C)[C@@H](C)O)cc1OC1CN(c2ncccn2)C1 [Example 5, (2S)-3-[(3S,4S)-3-[(1R)-1-hydroxyethyl]-4-{4-methoxy-3-[(1-pyrimidin-2-ylazetidin-3-yl)oxy]phenyl}-3-methylpyrroldiin-1-yl]-3-oxopropane-1,2-diol] | 1.5 nM |
| COc1ccc([C@@H]2CN(C(=O)[C@@H](O)CO)C[C@@]2(C)[C@@H](C)O)cc1OC1CN(c2ccc(C#N)cn2)C1 [Example 6, (2S)-3-[(3S,4S)-3-[(1R)-1-hydroxyethyl]-4-(4-methoxy-3-{[1-(5-cyanopyridin-2-yl)azetidin-3-yl]oxy}phenyl)-3-methylpyrrolidin-1-yl]-3-oxopropane-1,2-diol] | 0.31 nM |
| COc1ccc([C@@H]2CN(C(=O)[C@@H](O)CO)C[C@@]2(C)[C@@H](C)O)cc1OC1CN(c2cc(C#N)ccn2)C1 [Example 7, (2S)-3-[(3S,4S)-3-[(1R)-1-hydroxyethyl]-4-(4-methoxy-3-{[1-(4-cyanopyridin-2-yl)azetidin-3-yl]oxy}phenyl)-3-methylpyrrolidin-1-yl]-3-oxopropane-1,2-diol] | 0.44 nM |
| COc1ccc([C@@H]2CN(C(=O)[C@@H](O)CO)C[C@@]2(C)[C@@H](C)O)cc1OC1CN(c2cc(Cl)ncn2)C1 [Example 8, (2S)-3-[(3S,4)S-3-[(1R)-1-hydroxyethyl]-4-{4-methoxy-3-[(1-(6-chloropyrimidin-4-yl)azetidin-3-yl)oxy]phenyl}-3-methylpyrrolidin-1-yl]-3-oxopropane-1,2-diol] | 0.53 nM |
| COc1ccc([C@@H]2CN(C(=O)[C@@H](O)CO)C[C@@]2(C)[C@@H](C)O)cc1OC1CN(c2ccc(Cl)cn2)C1 [Example 12, (2S)-3-[(3S,4S)-3-[(1R)-1-hdyroxyethyl]-4-(4-methoxy-3-{[1-(5-chloropyridin-2-yl)azetidin-3-yl]oxy}phenyl)-3-methylpyrrolidin-1-yl]-3-oxopropane-1,2-diol] | 0.16 nM |
| COc1ccc([C@@H]2CN(C(=O)[C@@H](O)CO)C[C@@]2(C)[C@@H](C)O)cc1OC1CN(c2ccncn2)C1 [Example 13, (2S)-3-[(3S,4S)-3-[(1R)-1-hydroxyethyl]-4-(4-methoxy-3-{[1-(pyrimidin-4-yl)azetidin-3-yl]oxy}phenyl)-3-methylpyrrolidin-1-yl]-3-oxopropane-1,2-diol] | 3.8 nM |
| [2H]C([2H])([2H])c1ccc(N2CC(Oc3cc([C@@H]4CN(C(=O)[C@@H](O)CO)C[C@@]4(C)[C@@H](C)O)ccc3OC)C2)nc1 [Example 14, (S)-2,3-dihydroxy-1-((3S,4S)-3-((R)-1-hydroxyethyl)-4-(4-methoxy-3-((1-(5-(methyl-D3)pyridin-2-yl)azetidin-3-yl)oxy)phenyl)-3-methylpyrrolidin-1-yl)propan-1-one] | 0.13 nM |
